This note sets out measurements from publication PMC4061482 (Frontiers in Oncology, 2014).

Experiment [1] deals with 22RV1 cells. Put plainly: Testosterone ELISA after androstenedione stimulation. In kind it is cell-based, human. How it is done: Cells were seeded into 96-well plates in hormone-deprived media at appropriate seeding densities [10,000–50,000 cells per well for all lines except HCC1500 (100,000 cells per well; 11β-PGF2α ELISA)] to reach approximately 70% confluency at the time of sampling and were left to settle for 24 h at 37°C and 5% CO2. […] removed for analysis of 11β-PGF2α, testosterone, or 17β-estradiol by ELISA as per manufacturer’s instructions (11β-PGF2α and testosterone ELISA, Cayman Chemical Company; 17β-estradiol ELISA, Oxford Biomedical Research), and cells were fixed for sulforhodamine B analysis as described below. Each ELISA plate was read at a wavelength of 405 nm (11β-PGF2α and testosterone) or 650 nM (17β-estradiol) on a SpectraMax M2 microplate reader (Molecular Devices) and quantitated against a standard curve generated in hormone-deprived culture media. Cross-reactivity to PGD2, androstenedione, or estrone was accounted for by adding these to cell-free wells of each ELISA plate.
Since AKR1C3 has been implicated in the development of CRPC because of its ability to produce testosterone intratumorally from circulating androstenedione, we determined testosterone concentrations in the prostate cancer cell lines and known high and low AKR1C3-expressing cells after stimulation with androstenedione for 24 h.
In general terms: An ELISA detects its analyte on a solid surface through an enzyme-linked reagent.

Experiment [2] concerns MCF7 cells. Briefly: 17β-estradiol ELISA after estrone stimulation. In kind it is cell-based, human. Particulars: Homo sapiens, MCF7; 10 μM; 28 nM estrone, 24 h; read-out: Inhibition of 17β-estradiol formation. How it is done:
(§1) Cells were seeded into 96-well plates in hormone-deprived media at appropriate seeding densities [10,000–50,000 cells per well for all lines except HCC1500 (100,000 cells per well; 11β-PGF2α ELISA)] to reach approximately 70% confluency at the time of sampling and were left to settle for 24 h at 37°C and 5% CO2. Inhibitors were added to the plates at single or multiple concentrations for 1 h prior to administration of equimolar (28 nM) concentrations of PGD2 (11β-PGF2α ELISA), androstenedione (testosterone ELISA), or estrone (17β-estradiol ELISA). The plates were returned to the incubator for a further 24 h before cell supernatant was removed for analysis of 11β-PGF2α, testosterone, or 17β-estradiol by ELISA as per manufacturer’s instructions (11β-PGF2α and testosterone ELISA, Cayman Chemical Company; 17β-estradiol ELISA, Oxford Biomedical Research), and cells were fixed for sulforhodamine B analysis as described below. Each ELISA plate was read at a wavelength of 405 nm (11β-PGF2α and testosterone) or 650 nM (17β-estradiol) on a SpectraMax M2 microplate reader (Molecular Devices) and quantitated against a standard curve generated in hormone-deprived culture media. Cross-reactivity to PGD2, androstenedione, or estrone was accounted for by adding these to cell-free wells of each ELISA plate.
(§2) 17β-estradiol is predominantly produced from estrone by 17β-HSD1 in breast tissue in post-menopausal women ([44]). Although less catalytically efficient than 17β-HSD1, AKR1C3 can also convert estrone to 17β-estradiol ([10], [12], [14]), and therefore, may play a role in ER-positive breast cancer development. To investigate the activity of AKR1C3 in 17β-estradiol production, ER-positive breast cancer cells and known high and low AKR1C3-expressing cells were stimulated with estrone for 24 h prior to determination of 17β-estradiol levels by ELISA.

Another experiment concerns T47D AKR1C3 cells. Briefly: 17β-estradiol ELISA after estrone stimulation. Particulars: 10 μM; 28 nM estrone, 24 h. It counts as cell-based, human. As to the method: as §1, §2
In the next experiment the test system is T47D cells. Briefly: 17β-estradiol ELISA after estrone stimulation. Particulars: 10 μM; 28 nM estrone, 24 h. In kind it is cell-based, human. How it is done: as §1, §2
Experiment [3] relates to 22RV1 cells. Put plainly: PSA concentration after androstenedione stimulation. It counts as cell-based. Particulars: Homo sapiens, 10 nM androstenedione, 24 h, read-out: Inhibition of PSA formation attributable to androstenedione stimulation. How it is done: (§3) Cells were seeded at 20,000 cells per well (LAPC4, LAPC4 AKR1C3) or 50,000 cells per well (22RV1) into 96-well plates in hormone-deprived media and left to settle for 24 h at 37°C and 5% CO2. […] The plates were returned to the incubator for 24 h, before the cell supernatant was removed and frozen for PSA analysis. Determination of total PSA concentration was carried out at LabPLUS, Auckland City Hospital, by immunoassay on a Cobas® e601 analyzer according to manufacturer’s instructions (Roche).
(§4) Next, PSA expression was determined in the CRPC cell lines that were sensitive to SN33638-mediated inhibition of testosterone (LAPC4 AKR1C3 and 22RV1 with LAPC4 wild-type cells acting as a negative control) as a biomarker of AR activity. […] Androstenedione stimulation promoted PSA production in all three cell lines, with the highest PSA levels observed in LAPC4 AKR1C3 cells.

In another experiment the test system is LAPC4 AKR1C3 cells. The description is as above. Particulars: Homo sapiens, LAPC4, 24 h, read-out: Inhibition of PSA formation attributable to androstenedione stimulation. In kind it is cell-based. As to the method: as §3, §4
The test system of experiment [4] is MCF7 cells. Put plainly: Cell proliferation (sulforhodamine B), 5 days. In kind it is cell-based, human. How it is done: Cells were seeded into 96-well plates in hormone-deprived media at appropriate seeding densities (5000–20,000 cells per well) to reach approximately 70% confluency at the time of sampling and left to settle for 48 h at 37°C and 5% CO2. […] The plates were returned to the incubator for 5 days before fixing in 10% trichloroacetic acid (Merck Millipore) at 4°C for 1 h and staining with 0.4% sulforhodamine B (Sigma-Aldrich) in 1% acetic acid for 30 min in the dark at room temperature. Plates were washed in 1% acetic acid, dried, and incubated with unbuffered Tris base (10 mM; Serva) for 30 min on a plate shaker in the dark to solubilize the stain. The plates were read on a BioTek EL808 microplate reader at an absorbance of 490 nm with a reference wavelength of 450 nm.
Finally, we investigated whether inhibiting AKR1C3-dependent testosterone or 17β-estradiol production could prevent androstenedione- or estrone-stimulated cell proliferation in CRPC or ER-positive breast cancer cells.
Neither androstenedione nor estrone-stimulated cell proliferation in the HCT116 AKR1C3 and wild-type cell lines (data not shown).

Where two headings read alike, the source gives them in different places.

In the case of `CC1CCCCN1S(=O)(=O)c1ccc(N2CCCC2=O)cc1` (stereo not shown) [SN33638], the “Effect on testosterone levels” value in the experiment with 22RV1 cells [1] (5 days after stimulation with up to 10 nM androstenedione, data not shown) was “no inhibitory effect”. The inhibition at 10 µM in the experiment with 22RV1 cells [1] (Homo sapiens, 22Rv1, 10 μM, 28 nM androstenedione, 24 h, read-out: Inhibition of testosterone levels) amounted to 50.8%; in the experiment on MCF7 cells [2] it was 16%; in the experiment on 22RV1 cells [3], 44.9%; in the experiment with LAPC4 AKR1C3 cells (1 nM androstenedione), 90.8%; in the experiment on LAPC4 AKR1C3 cells (10 nM androstenedione), 57.4%; with MCF7 cells [4] (Homo sapiens, MCF7, 120 h, 10 nM estrone, read-out: Inhibition of estrone-stimulated cell proliferation), 14.9%. The “Effect on 17β-estradiol levels” value in the experiment on T47D AKR1C3 cells and with T47D cells was “no effect” throughout. For the same molecule, in the experiment with MCF7 cells [4] (10 μM), the “Reduction of unstimulated cell proliferation” value is 7.3%.
